What was measured:
[1] = molecular target: Cyclin-dependent kinase 2 (Homo sapiens, UniProt P24941); experiment: Inhibition of Cdk2
[2] = molecular target: T1, Tyrosine-protein kinase receptor UFO (Homo sapiens, UniProt P30530); experiment: Inhibition of Axl
T1 sequence (P30530 whole entry): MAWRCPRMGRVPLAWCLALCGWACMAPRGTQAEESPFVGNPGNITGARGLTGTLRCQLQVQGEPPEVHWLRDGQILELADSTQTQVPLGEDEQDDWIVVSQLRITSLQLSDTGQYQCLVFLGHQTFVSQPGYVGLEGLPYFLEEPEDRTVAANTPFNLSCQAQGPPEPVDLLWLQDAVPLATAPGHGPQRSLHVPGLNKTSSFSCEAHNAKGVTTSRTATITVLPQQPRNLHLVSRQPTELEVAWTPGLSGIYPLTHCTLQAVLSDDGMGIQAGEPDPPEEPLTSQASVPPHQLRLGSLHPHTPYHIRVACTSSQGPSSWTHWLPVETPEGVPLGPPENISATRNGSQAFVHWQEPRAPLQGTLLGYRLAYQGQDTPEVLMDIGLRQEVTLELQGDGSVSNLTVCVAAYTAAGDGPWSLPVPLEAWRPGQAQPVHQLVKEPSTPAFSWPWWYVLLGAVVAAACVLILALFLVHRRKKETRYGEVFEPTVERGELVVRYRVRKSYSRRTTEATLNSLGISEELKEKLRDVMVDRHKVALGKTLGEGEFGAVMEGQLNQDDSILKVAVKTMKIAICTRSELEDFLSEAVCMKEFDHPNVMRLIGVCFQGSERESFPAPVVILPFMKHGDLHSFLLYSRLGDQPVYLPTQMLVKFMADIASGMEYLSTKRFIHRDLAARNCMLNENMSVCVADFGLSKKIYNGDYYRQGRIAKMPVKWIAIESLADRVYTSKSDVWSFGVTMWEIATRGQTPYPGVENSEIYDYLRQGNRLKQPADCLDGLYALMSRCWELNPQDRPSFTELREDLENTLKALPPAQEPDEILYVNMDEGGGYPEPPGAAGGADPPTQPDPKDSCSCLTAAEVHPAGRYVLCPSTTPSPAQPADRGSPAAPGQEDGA

[3] = molecular target: Tyrosine-protein kinase ABL1 (Homo sapiens, UniProt P00519); experiment: Inhibition of Abl
[4] = molecular target: Proto-oncogene tyrosine-protein kinase Src (Homo sapiens, UniProt P12931); experiment: Inhibition of Src
[5] = molecular target: T2, Inhibitor of nuclear factor kappa-B kinase subunit beta (Homo sapiens, UniProt O14920); experiment: Inhibition of IKK-beta
T2 sequence (O14920 whole entry): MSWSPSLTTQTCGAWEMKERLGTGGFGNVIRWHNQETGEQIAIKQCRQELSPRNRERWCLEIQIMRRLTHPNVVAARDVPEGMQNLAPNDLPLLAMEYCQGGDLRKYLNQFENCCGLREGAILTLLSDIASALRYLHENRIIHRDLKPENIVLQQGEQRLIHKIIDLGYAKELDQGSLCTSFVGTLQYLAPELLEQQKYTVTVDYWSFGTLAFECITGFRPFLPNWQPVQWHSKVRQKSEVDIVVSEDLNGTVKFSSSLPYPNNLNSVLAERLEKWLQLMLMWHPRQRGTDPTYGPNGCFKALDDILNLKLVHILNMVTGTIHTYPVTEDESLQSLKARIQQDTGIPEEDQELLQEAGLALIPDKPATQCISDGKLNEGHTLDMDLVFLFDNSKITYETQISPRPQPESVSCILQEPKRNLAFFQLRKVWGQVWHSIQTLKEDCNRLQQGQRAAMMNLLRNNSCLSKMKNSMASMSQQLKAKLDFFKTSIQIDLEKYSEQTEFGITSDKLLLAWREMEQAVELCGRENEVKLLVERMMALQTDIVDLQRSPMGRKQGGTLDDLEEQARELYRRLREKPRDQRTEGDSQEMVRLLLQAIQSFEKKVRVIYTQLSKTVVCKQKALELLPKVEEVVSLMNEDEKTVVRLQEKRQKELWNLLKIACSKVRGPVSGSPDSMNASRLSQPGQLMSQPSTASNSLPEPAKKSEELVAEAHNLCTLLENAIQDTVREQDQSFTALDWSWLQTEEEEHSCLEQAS

[6] = molecular target: T3, Protein kinase C zeta type (Homo sapiens, UniProt Q05513); experiment: Inhibition of PKCzeta
T3 sequence (Q05513 whole entry): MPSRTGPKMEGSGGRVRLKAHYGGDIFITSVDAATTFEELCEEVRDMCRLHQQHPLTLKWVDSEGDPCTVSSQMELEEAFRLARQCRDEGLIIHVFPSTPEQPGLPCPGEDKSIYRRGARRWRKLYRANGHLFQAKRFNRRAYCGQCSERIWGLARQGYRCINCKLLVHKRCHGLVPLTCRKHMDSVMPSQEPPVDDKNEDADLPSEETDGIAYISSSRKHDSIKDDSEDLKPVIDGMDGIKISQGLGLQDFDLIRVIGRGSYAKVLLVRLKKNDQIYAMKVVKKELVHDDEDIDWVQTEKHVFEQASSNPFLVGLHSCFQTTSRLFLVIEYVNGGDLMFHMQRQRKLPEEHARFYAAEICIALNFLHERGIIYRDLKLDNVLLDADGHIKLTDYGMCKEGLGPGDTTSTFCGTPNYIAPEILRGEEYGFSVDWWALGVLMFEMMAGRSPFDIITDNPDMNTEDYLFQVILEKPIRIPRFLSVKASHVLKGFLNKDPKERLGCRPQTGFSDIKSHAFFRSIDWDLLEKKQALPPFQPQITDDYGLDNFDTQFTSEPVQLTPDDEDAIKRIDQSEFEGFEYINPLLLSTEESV

Chain of Tyrosine-protein kinase ABL1 (P00519 whole entry): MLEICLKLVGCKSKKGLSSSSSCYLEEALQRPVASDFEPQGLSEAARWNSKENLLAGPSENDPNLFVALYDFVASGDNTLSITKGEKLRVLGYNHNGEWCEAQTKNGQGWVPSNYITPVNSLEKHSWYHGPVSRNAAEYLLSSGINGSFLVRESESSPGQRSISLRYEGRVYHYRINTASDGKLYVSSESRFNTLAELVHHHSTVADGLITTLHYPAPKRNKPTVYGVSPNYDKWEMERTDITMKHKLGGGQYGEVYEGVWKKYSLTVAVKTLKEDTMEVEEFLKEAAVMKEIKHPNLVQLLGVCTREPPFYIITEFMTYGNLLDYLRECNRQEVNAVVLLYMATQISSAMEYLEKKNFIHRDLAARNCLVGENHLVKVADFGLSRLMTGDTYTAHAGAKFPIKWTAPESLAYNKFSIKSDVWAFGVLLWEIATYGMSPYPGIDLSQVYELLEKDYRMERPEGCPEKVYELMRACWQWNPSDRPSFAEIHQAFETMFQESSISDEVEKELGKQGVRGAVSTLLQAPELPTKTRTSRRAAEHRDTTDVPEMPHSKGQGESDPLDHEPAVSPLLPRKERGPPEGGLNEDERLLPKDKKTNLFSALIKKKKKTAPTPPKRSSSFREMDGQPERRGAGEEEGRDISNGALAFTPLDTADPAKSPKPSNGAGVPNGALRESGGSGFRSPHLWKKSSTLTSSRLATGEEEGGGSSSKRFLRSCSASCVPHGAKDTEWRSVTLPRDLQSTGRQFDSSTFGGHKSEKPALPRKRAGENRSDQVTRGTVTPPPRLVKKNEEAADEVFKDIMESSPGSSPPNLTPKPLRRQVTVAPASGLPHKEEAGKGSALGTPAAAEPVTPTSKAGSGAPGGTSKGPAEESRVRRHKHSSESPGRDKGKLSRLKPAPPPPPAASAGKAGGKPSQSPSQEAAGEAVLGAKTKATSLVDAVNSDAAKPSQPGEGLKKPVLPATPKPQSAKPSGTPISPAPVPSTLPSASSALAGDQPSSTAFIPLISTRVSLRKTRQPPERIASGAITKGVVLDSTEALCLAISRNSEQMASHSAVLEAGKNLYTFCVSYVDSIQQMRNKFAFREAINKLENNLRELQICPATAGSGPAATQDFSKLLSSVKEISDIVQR
Chain of Proto-oncogene tyrosine-protein kinase Src (P12931 2-536 limits assumed): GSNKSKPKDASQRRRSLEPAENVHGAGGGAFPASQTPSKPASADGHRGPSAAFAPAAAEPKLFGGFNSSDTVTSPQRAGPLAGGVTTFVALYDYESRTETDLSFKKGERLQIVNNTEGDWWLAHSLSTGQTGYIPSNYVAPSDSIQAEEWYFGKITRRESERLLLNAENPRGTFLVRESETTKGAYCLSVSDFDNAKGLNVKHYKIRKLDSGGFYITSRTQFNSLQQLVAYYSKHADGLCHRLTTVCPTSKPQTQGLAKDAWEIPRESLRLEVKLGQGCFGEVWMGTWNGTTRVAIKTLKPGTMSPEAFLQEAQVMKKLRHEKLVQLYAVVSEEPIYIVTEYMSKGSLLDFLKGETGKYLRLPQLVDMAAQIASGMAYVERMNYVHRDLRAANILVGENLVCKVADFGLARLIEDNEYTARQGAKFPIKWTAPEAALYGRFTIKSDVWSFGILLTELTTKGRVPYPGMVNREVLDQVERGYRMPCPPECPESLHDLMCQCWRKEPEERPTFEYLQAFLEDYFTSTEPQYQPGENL

Structure (SMILES)	IC50 [1]	IC50 [2]	IC50 [3]	IC50 [4]	IC50 [5]	IC50 [6]
O=C(c1cc2cc(F)ccc2[nH]1)N1C[C@]2(CCN(C3CCCNC3)C2)c2ccccc21 (some centres undefined)	> 30 µM	19.4 µM	> 30 µM	> 30 µM	> 30 µM	> 30 µM
C[C@@H]1CCC(N2CC[C@]3(CN(C(=O)c4cc5ccccc5[nH]4)c4ccccc43)C2)CN1 (some centres undefined)	> 30 µM	18.4 µM	> 30 µM	> 30 µM	> 30 µM	> 30 µM
O=C(c1cc2ccc(F)cc2[nH]1)N1C[C@]2(CCN(C3CCNC3)C2)c2ccccc21 (some centres undefined)	> 30 µM	5.25 µM	> 30 µM	> 30 µM	> 30 µM	> 30 µM
C[C@@H]1CCC(N2CC[C@]3(CN(C(=O)c4cc5ccc(F)cc5[nH]4)c4ccccc43)C2)CN1 (some centres undefined)	> 30 µM	23.8 µM	> 30 µM	> 30 µM	> 30 µM	> 30 µM

Source: ChEMBL document CHEMBL1933021, “Novel and selective spiroindoline-based inhibitors of Sky kinase” (Bioorg Med Chem Lett, 2012)
